In patent US12622934B2, “Pharmaceutical composition for preventing or treating atopic disease containing Faecalibacterium prausnitzii strain” (ENTEROBIOME INC., priority 2020, dated 2026):
Converted amounts (≈) assume the structure as drawn.

What was measured:
[1] = system: Faecalibacterium prausnitzii EB-FPDK11; experiment: MIC by CLSI broth microdilution, isolated strain; format: cell-based; parameters: MIC: unit not given beside the values; conditions: for resistance or sensitivity of the EB-FPDK11 strain to the antibiotic: Table 5; for MIC breakpoint class: test strain EB-FPDK11, breakpoints per antibiotic in c1-c3
[2] = system: Faecalibacterium prausnitzii A2-165; experiment: MIC by CLSI broth microdilution, type strain; format: cell-based; parameters: MIC: unit not given beside the values; conditions: for MIC breakpoint class: test strain A2-165, breakpoints per antibiotic in c1-c3
[3] = system: Bacteroides thetiotaomicron ATCC 29741; experiment: MIC by CLSI broth microdilution, QC strain; format: cell-based; conditions: ATCC29741
IL-6 = experiment: Serum cytokine concentration (ELISA), IL-6; format: in vivo, mice; conditions: mouse blood, compared to atopic dermatitis-induced group (DNCB)
Method: (§1) The Faecalibacterium prausnitzii A2-165 strain and Faecalibacterium prausnitzii EB-FPDK11 live bacteria used in this experiment were prepared at a concentration of 1×10^8 CFU/150 μl PBS (25% glycerol, 0.05% cysteine/PBS).
(§2) To observe atopic dermatitis lesions, 6-week-old NC/Nga mice (weighed about 21 to 25 g, SLC, Inc., Japan) were purchased from Daehan Biolink Co., Ltd. (Chungbuk, Korea). Animal tests were carried out in accordance with the Animal use and Care Protocol of the Institutional Animal Care and Use Committee (IACUC). The animals were acclimated for one week, and then raised for 9 weeks at a constant temperature of 22° C. and a relative humidity of 50 to 60% with a 12-hr light/12-hr dark cycle.
(§3) The backs of 6-week-old NC/Nga mice were shaved clean, and then left to stand for 24 hours so that fine wounds of the skin were healed. […]
After induction of atopic dermatitis, the concentrations of cytokines related to Th1 and Th2 were measured to examine the immune response resulting from administration of the Faecalibacterium prausnitzii EB-FPDK11 strain of the present invention. […]
(§4) At the end of the experiment, the mice were anesthetized with CO2, and blood was collected by cardiac puncture. […] The concentrations of IL-4, IL-12, IFN-γ and IL-6 cytokines were measured using an ELISA kit (Invitrogen, CA, USA), and the results of the measurement are shown in FIGS. 16 and 17.

NC/Nga mice [4] = experiment: Scratching frequency; format: in vivo; conditions: scratching for 10 minutes, day before end, compared to atopic dermatitis-induced group
Method: as §1, §2
(§5) The backs of 6-week-old NC/Nga mice were shaved clean, and then left to stand for 24 hours so that fine wounds of the skin were healed. 1% 2,4-dinitrochlorobenzene (DNCB) solution (Sigma-Aldrich Korea) was applied to the back of each mouse twice a week for 3 weeks to induce an immune response, and then 0.5% DNCB solution was applied twice a week to induce contact dermatitis. […]
The day before the end of the experiment, the frequency of scratching the affected area due to itching was measured. For measurement of the frequency of scratching, each mouse was acclimated for 10 minutes, and then the frequency of scratching for 10 minutes was measured using a counter.

IgE = experiment: Serum IgE concentration (ELISA); format: in vivo, mice; conditions: end of experiment, compared to DNCB group (1545.08 ng/ml)
Method: as §1, §2, §5
At the end of the experiment, each of the mice was anesthetized with CO2 and blood was collected by cardiac puncture. The collected blood was centrifuged at 10,000 rpm for 5 minutes to separate the serum, and the serum IgE concentration was measured. […]

Th2/Th1 cytokines = experiment: Ratio of Th2/Th1 cytokines in serum; format: in vivo, mice
Method: as §1
as §2, with “cycle. […]” for “cycle.”
as §4
From an immunological point of view, allergenic atopic dermatitis is a disease caused by an excessive imbalance between Th1 and Th2 immune responses. Thus, the cytokine concentrations measured as described above were expressed as the ratio of Th2/Th1 cytokines, and the results are shown in FIGS. 18 and 19.

NC/Nga mice [5] = experiment: Ear edema caused by atopic dermatitis (thickness gauge); format: in vivo; conditions: at 6 weeks; normal group 0.55 mm, DNCB group 1.50 mm
Method: as §1, §2, §5
After completion of the experiment, the mice were sacrificed by anesthetizing with CO2, and then the degree of edema of both ears was measured by the velocity transformation technique using a thickness gauge (Digimatic thickness gauge, 547-301, Mitutoyo, Japan).

NC/Nga mice [6] = experiment: Spleen weight; format: in vivo; conditions: after 6 weeks oral treatment, compared to atopic dermatitis-induced group (DNCB)
Method: as §1, §2, §3
Thus, the weight of the spleen was measured to observe the effect of the composition for preventing atopic dermatitis on the immune organs of NC/Nga mice with atopic dermatitis induced by DNCB. […] The collected spleen tissue was washed with physiological saline and then dried, and the weights thereof were measured using a microbalance and the sizes thereof were visually observed.

Molecule	resistance or sensitivity of the EB-FPDK11 strain to the antibiotic [1]	MIC breakpoint class [1]	MIC breakpoint class [2]	also measured
O=C(N[C@H](CO)[C@H](O)c1ccc([N+](=O)[O-])cc1)C(Cl)Cl [CHL, chloramphenicol]	sensitivity	(S)	(R)	–
CCC[C@@H]1C[C@@H](C(=O)N[C@@H]([C@H]2O[C@H](SC)[C@H](O)[C@@H](O)[C@H]2O)[C@H](C)Cl)N(C)C1 [CLI, clindamycin]	–	(S)	(S)	–
CO/N=C(\C(=O)N[C@@H]1C(=O)N2C(C(=O)O)=CCS[C@H]12)c1csc(N)n1 [CTZ, ceftizoxime]	resistance	(R)	(I)	–
C[C@@H](O)[C@H]1C(=O)N2C(C(=O)O)=C(S[C@@H]3CN[C@H](C(=O)N(C)C)C3)[C@H](C)[C@H]12 [MEM, meropenem]	resistance	(R)	(R)	MIC [3]: 0.5 µg/mL (≈ 1.3 µM)
Cc1ncc([N+](=O)[O-])n1CCO [MTZ, metronidazole]	sensitivity	(S)	(S)	–
COc1c(N2C[C@@H]3CCCN[C@@H]3C2)c(F)cc2c(=O)c(C(=O)O)cn(C3CC3)c12 [MXF, moxifloxacin]	–	(R)	(R)	–
C[C@@H]1C[C@H]2[C@@H]3CCC4=CC(=O)C=C[C@]4(C)[C@@]3(F)[C@@H](O)C[C@]2(C)[C@@]1(O)C(=O)CO [dexamethasone]	–	–	–	decrease in IL-6 concentration (IL-6): 35.5%; decrease in frequency of scratching (NC/Nga mice [4]): about 59.4%; decrease in serum IgE concentration (IgE): 40.70%; decrease in IL-4/IL-12 ratio (Th2/Th1 cytokines; compared to atopic dermatitis-induced group): 23.7%; decrease in ratio of IL-6/IL-12 (Th2/Th1 cytokines; compared to atopic dermatitis-induced group (DNCB)): 35.8%; ear edema (NC/Nga mice [5]): 1.00 mm; decrease in spleen weight (NC/Nga mice [6]): 23.26%
Piperacillin-tazobactam [PTZ]	resistance	(R)	(R)	MIC ([1]; test strain EB-FPDK11, broth microdilution): ≤256/4; MIC ([2]; test strain A2-165, broth microdilution): ≤256/4
